Values after ≈ are worked out from the molar mass of the structure shown. Like-named read-outs stand apart in the source and are kept apart here. Bounds are passed on as bounds.

Holding throughout (assay type): cell-based
One experiment concerns M. bovis BCG. Kind of experiment: microbe, parasite or virus in culture. The settings on record: for FIC index: M. bovis BCG (Dubos), drug in combination with LysB, <0.5 indicates synergy; for MIC: Mycobacterium tuberculosis variant bovis BCG, BCG.
In experiment [1] the test system is M. smegmatis.
For experiment [2], the system named is M. smegmatis. Kind of experiment: Broth checkerboard MIC, synergy of LysB with anti-TB drugs. The settings on record: for MIC: Mycolicibacterium smegmatis.

Consider `NNC(=O)c1ccncc1` [INH, Isoniazid], for which the FIC index with M. bovis BCG worked out at 0.47; with M. smegmatis [2], 0.13. Moreover, the MIC was 0.03 µg/mL (≈ 0.219 µM) with M. bovis BCG and 8 µg/mL in the experiment on M. smegmatis [2]. Further, in the experiment with M. smegmatis [1] (M. smegmatis, 24 hrs, INH group), the “Log10 CFU reduction” value is on record as below 1 Log10 CFU.

Take `CC[C@@H](CO)NCCN[C@@H](CC)CO` [Ethambutol]: the figures for the FIC index in the experiment on M. bovis BCG and in the experiment with M. smegmatis [2] were 0.15 and 0.06, respectively. Also, the MIC in the experiment on M. bovis BCG worked out at 16 µg/mL (≈ 78.3 µM); in the experiment on M. smegmatis [2], 2 µg/mL. In addition, the “Log10 CFU reduction” value in the experiment on M. smegmatis [1] (M. smegmatis, 24 hrs, Ethambutol group) was below 1 Log10 CFU.

For `CO[C@H]1/C=C/O[C@@]2(C)Oc3c(C)c(O)c4c(O)c(c(/C=N/N5CCN(C)CC5)c(O)c4c3C2=O)NC(=O)/C(C)=C\C=C\[C@H](C)[C@H](O)[C@@H](C)[C@@H](O)[C@@H](C)[C@H](OC(C)=O)[C@@H]1C` [Rifampicin], in the experiment with M. bovis BCG, the FIC index was determined as 0.37 and the MIC was found to be 0.004 µg/mL (≈ 0.00486 µM). Also, the “Log10 CFU reduction” value in the experiment with M. smegmatis [1] is listed as below 1 Log10 CFU. Moreover, in the experiment with M. smegmatis [2], the FIC index is reported as 0.06 and the MIC came to 4 µg/mL.

Values taken from US20170136102A1, “PHAGE-DERIVED COMPOSITIONS FOR IMPROVED MYC[…]” (priority 2014, published 2017).
